From patent publication US20260265538A1, “Aqueous Industrial Product Stabilized Against Microbial Contamination” (Thor GmbH, priority 2023, published 2026)

System: Bacteria mixture 2 (alkaliphilic bacteria of the Nesterenkonia & Alkalibacterium genus)
Assay: Repetitive stress test of paints with bacteria mixture 2, semiquantitative evaluation (examples 4 and 5)
Format: cell-based
Design: key to Bacterial growth after inoculation: 0: No growth; Minimal growth, 1 to 10 colonies visible over the entire streak; 2: Light growth, maximum 100 colonies; Moderate growth, maximum 300 to 400 colonies; Uniform growth, >400 colonies, single colonies still clearly recognizable; 5: Heavy growth, too many colonies to count, but no growth over the entire streak; 6: Full growth, barely any single colonies still apparent, growth over the entire streak
Text: Paints 1 to 3 were mixed and homogenized with various concentrations of the guanidinium salts to be tested.
The batches obtained of the paint thus prepared were inoculated repeatedly with a mixture of different wild-type bacterial strains that are of practical relevance with regard to contamination. These bacteria had previously been isolated from commercial emulsion paints containing conventional preservatives (bacteria mixture 1, Pseudomonas genus), which are microbially contaminated in practice, and commercial so-called preservative-free alkaline emulsion paints (bacteria mixture 2, alkaliphilic bacteria of the Nesterenkonia & Alkalibacterium genus), which are microbially contaminated in practice.
• Nesterenkonia sp. DSM 108520 • Nesterenkonia sp. DSM 108521 • Alkalibacterium pelagium DSM 108522 • Nesterenkonia massiliensis DSM 110679 • Nesterenkonia sp. DSM 108519
The inoculum was added to the respective sample in each inoculation at 2% (v/w) as a fresh cell suspension in a physiological saline solution (0.9% NaCl). The cell count of the added inoculum in example 1 was 10^5/ml, in examples 2 to 5 10^9/ml, and in example 6 10^6/ml, each in equal portions consisting of the individual bacterial strains. The cell suspension was produced by growing the individual bacteria at 30° C. for 24 h in liquid culture on a shaker. The medium used to grow the bacteria from bacteria mixture 1 was Müller-Hinton liquid medium. Bacteria from bacteria mixture 2 were grown in Müller-Hinton liquid medium that had been adjusted to pH 9.5-9.7 with an alkaline buffer solution beforehand. After growing, the individual liquid cultures were centrifuged, and the cells were resuspended in physiological saline solution. In order to adjust the mixture to the desired cell count, the individual bacteria suspensions, if necessary, were diluted accordingly before being combined with saline solution. The cell count of the inoculum was determined in each case by chamber counting.
In examples 2 to 6, what is called a repetitive stress test with bacteria was conducted by inoculating the samples at particular time intervals repeatedly with a bacteria suspension having a cell count of 10^9/ml (2% v/w) and monitoring the evolution of the bacteria by a semiquantitative evaluation method. After each inoculation, the samples were incubated at 30° C. for 6 days (bacteria mixture 1 and 3) or 7 and 14 days (bacteria mixture 2), and after these periods bacterial infestation was evaluated semiquantitatively in each case. For this purpose, an aliquot was taken from each sample after homogenization using a sterile plastic inoculation loop (10 μl) and streaked evenly on agar plates (bacteria mixture 1 and 3 on tryptic soy agar, bacteria mixture 2 on DSMZ 31 alkaline nutrient agar). The streaked agar plates were then incubated at 30° C. for 48 h (bacteria mixture 1 and 3) or 5 to 7 days (bacteria mixture 2). After incubation, the bacterial colonies grown on the agar plates were visually evaluated and quantified according to the following scheme:
A total of 3 inoculation cycles was performed in each repetitive stress test.
Inoculation 2% (w/v) with Bacteria Mixture 2, 10^9 CFU/ml

N=C(N)N.N=C(N)N.O=C(O)O [guanidine carbonate] was tested, and the “Bacterial growth after inoculation” value (Table 4, Paint 2, +0.1% guanidine carbonate (656 ppm guanidine), pH 8.9, 2. inoculation, 14 d) was 4 (Uniform growth, >400 colonies, single colonies still clearly recognizable), the “Bacterial growth after inoculation” value (Table 4, Paint 2, +0.1% guanidine carbonate (656 ppm guanidine), pH 8.9, 3. inoculation, 7 d) was 6/6 and the “Bacterial growth after inoculation” value (Table 4, Paint 2, +0.1% guanidine carbonate (656 ppm guanidine), pH 8.9, 3. inoculation, 14 d) was 6/6. For the same compound, the “Bacterial growth after inoculation” value (Table 4, Paint 2, +0.15% guanidine carbonate (984 ppm guanidine), pH 9.0, 1. inoculation, 7 d) was 0/0, the “Bacterial growth after inoculation” value (Table 4, Paint 2, +0.15% guanidine carbonate (984 ppm guanidine), pH 9.0, 1. inoculation, 14 d) was 0/0 and the “Bacterial growth after inoculation” value (Table 4, Paint 2, +0.15% guanidine carbonate (984 ppm guanidine), pH 9.0, 2. inoculation, 7 d) was 2 (Light growth, maximum 100 colonies). For the same compound, the “Bacterial growth after inoculation” value (Table 4, Paint 2, +0.15% guanidine carbonate (984 ppm guanidine), pH 9.0, 2. inoculation, 14 d) was 1 (Minimal growth, 1 to 10 colonies visible over the entire streak), the “Bacterial growth after inoculation” value (Table 4, Paint 2, +0.15% guanidine carbonate (984 ppm guanidine), pH 9.0, 3. inoculation, 7 d) was 6/6 and the “Bacterial growth after inoculation” value (Table 4, Paint 2, +0.15% guanidine carbonate (984 ppm guanidine), pH 9.0, 3. inoculation, 14 d) was 6/6. For the same compound, the “Bacterial growth after inoculation” value (Table 4, Paint 2, +0.2% guanidine carbonate (1312 ppm guanidine), pH 9.1, 1. inoculation, 7 d) was 0/0, the “Bacterial growth after inoculation” value (Table 4, Paint 2, +0.2% guanidine carbonate (1312 ppm guanidine), pH 9.1, 1. inoculation, 14 d) was 0/0 and the “Bacterial growth after inoculation” value (Table 4, Paint 2, +0.2% guanidine carbonate (1312 ppm guanidine), pH 9.1, 2. inoculation, 7 d) was 0/0. For the same compound, the “Bacterial growth after inoculation” value (Table 4, Paint 2, +0.2% guanidine carbonate (1312 ppm guanidine), pH 9.1, 2. inoculation, 14 d) was 0/0, the “Bacterial growth after inoculation” value (Table 4, Paint 2, +0.2% guanidine carbonate (1312 ppm guanidine), pH 9.1, 3. inoculation, 7 d) was 6/6 and the “Bacterial growth after inoculation” value (Table 4, Paint 2, +0.2% guanidine carbonate (1312 ppm guanidine), pH 9.1, 3. inoculation, 14 d) was 6/6. The “Bacterial growth after inoculation” value (Table 4, Paint 2, +0.25% guanidine carbonate (1640 ppm guanidine), pH 9.1, 1. inoculation, 7 d) was 0/0, the “Bacterial growth after inoculation” value (Table 4, Paint 2, +0.25% guanidine carbonate (1640 ppm guanidine), pH 9.1, 1. inoculation, 14 d) was 0/0 and the “Bacterial growth after inoculation” value (Table 4, Paint 2, +0.25% guanidine carbonate (1640 ppm guanidine), pH 9.1, 2. inoculation, 7 d) was 0/0. For the same compound, the “Bacterial growth after inoculation” value (Table 4, Paint 2, +0.25% guanidine carbonate (1640 ppm guanidine), pH 9.1, 2. inoculation, 14 d) was 0/0, the “Bacterial growth after inoculation” value (Table 4, Paint 2, +0.25% guanidine carbonate (1640 ppm guanidine), pH 9.1, 3. inoculation, 7 d) was 0/0 and the “Bacterial growth after inoculation” value (Table 4, Paint 2, +0.25% guanidine carbonate (1640 ppm guanidine), pH 9.1, 3. inoculation, 14 d) was 0/0. For the same compound, the “Bacterial growth after inoculation” value (Table 4, Paint 2, +0.3% guanidine carbonate (1968 ppm guanidine), pH 9.2, 1. inoculation, 7 d) was 0/0, the “Bacterial growth after inoculation” value (Table 4, Paint 2, +0.3% guanidine carbonate (1968 ppm guanidine), pH 9.2, 1. inoculation, 14 d) was 0/0 and the “Bacterial growth after inoculation” value (Table 4, Paint 2, +0.3% guanidine carbonate (1968 ppm guanidine), pH 9.2, 2. inoculation, 7 d) was 0/0. For the same compound, the “Bacterial growth after inoculation” value (Table 4, Paint 2, +0.3% guanidine carbonate (1968 ppm guanidine), pH 9.2, 2. inoculation, 14 d) was 0/0, the “Bacterial growth after inoculation” value (Table 4, Paint 2, +0.3% guanidine carbonate (1968 ppm guanidine), pH 9.2, 3. inoculation, 7 d) was 0/0 and the “Bacterial growth after inoculation” value (Table 4, Paint 2, +0.3% guanidine carbonate (1968 ppm guanidine), pH 9.2, 3. inoculation, 14 d) was 0/0. For the same compound, the “Bacterial growth after inoculation” value (Table 4, Paint 2, +0.4% guanidine carbonate (2624 ppm guanidine), pH 9.3, 1. inoculation, 7 d) was 0/0, the “Bacterial growth after inoculation” value (Table 4, Paint 2, +0.4% guanidine carbonate (2624 ppm guanidine), pH 9.3, 1. inoculation, 14 d) was 0/0 and the “Bacterial growth after inoculation” value (Table 4, Paint 2, +0.4% guanidine carbonate (2624 ppm guanidine), pH 9.3, 2. inoculation, 7 d) was 0/0. The “Bacterial growth after inoculation” value (Table 4, Paint 2, +0.4% guanidine carbonate (2624 ppm guanidine), pH 9.3, 2. inoculation, 14 d) was 0/0, the “Bacterial growth after inoculation” value (Table 4, Paint 2, +0.4% guanidine carbonate (2624 ppm guanidine), pH 9.3, 3. inoculation, 7 d) was 0/0 and the “Bacterial growth after inoculation” value (Table 4, Paint 2, +0.4% guanidine carbonate (2624 ppm guanidine), pH 9.3, 3. inoculation, 14 d) was 0/0. The “Bacterial growth after inoculation” value (Table 4, Paint 2, +0.5% guanidine carbonate (3280 ppm guanidine), pH 9.4, 1. inoculation, 7 d) was 0/0, the “Bacterial growth after inoculation” value (Table 4, Paint 2, +0.5% guanidine carbonate (3280 ppm guanidine), pH 9.4, 1. inoculation, 14 d) was 0/0 and the “Bacterial growth after inoculation” value (Table 4, Paint 2, +0.5% guanidine carbonate (3280 ppm guanidine), pH 9.4, 2. inoculation, 7 d) was 0/0. For the same compound, the “Bacterial growth after inoculation” value (Table 4, Paint 2, +0.5% guanidine carbonate (3280 ppm guanidine), pH 9.4, 2. inoculation, 14 d) was 0/0, the “Bacterial growth after inoculation” value (Table 4, Paint 2, +0.5% guanidine carbonate (3280 ppm guanidine), pH 9.4, 3. inoculation, 7 d) was 0/0 and the “Bacterial growth after inoculation” value (Table 4, Paint 2, +0.5% guanidine carbonate (3280 ppm guanidine), pH 9.4, 3. inoculation, 14 d) was 0/0. The “Bacterial growth after inoculation” value (Table 4, Paint 2, +1.0% guanidine carbonate (6560 ppm guanidine), pH 9.8, 1. inoculation, 7 d) was 0/0, the “Bacterial growth after inoculation” value (Table 4, Paint 2, +1.0% guanidine carbonate (6560 ppm guanidine), pH 9.8, 1. inoculation, 14 d) was 0/0 and the “Bacterial growth after inoculation” value (Table 4, Paint 2, +1.0% guanidine carbonate (6560 ppm guanidine), pH 9.8, 2. inoculation, 7 d) was 0/0. The “Bacterial growth after inoculation” value (Table 4, Paint 2, +1.0% guanidine carbonate (6560 ppm guanidine), pH 9.8, 2. inoculation, 14 d) was 0/0, the “Bacterial growth after inoculation” value (Table 4, Paint 2, +1.0% guanidine carbonate (6560 ppm guanidine), pH 9.8, 3. inoculation, 7 d) was 0/0 and the “Bacterial growth after inoculation” value (Table 4, Paint 2, +1.0% guanidine carbonate (6560 ppm guanidine), pH 9.8, 3. inoculation, 14 d) was 0/0. The “Bacterial growth after inoculation” value (Table 5, Paint 3, +0.15% guanidine carbonate (984 ppm guanidine), pH 11.2, 1. inoculation, 7 d) was 3 (Moderate growth, maximum 300 to 400 colonies), the “Bacterial growth after inoculation” value (Table 5, Paint 3, +0.15% guanidine carbonate (984 ppm guanidine), pH 11.2, 1. inoculation, 14 d) was 0 and the “Bacterial growth after inoculation” value (Table 5, Paint 3, +0.15% guanidine carbonate (984 ppm guanidine), pH 11.2, 2. inoculation, 7 d) was 3 (Moderate growth, maximum 300 to 400 colonies). The “Bacterial growth after inoculation” value (Table 5, Paint 3, +0.15% guanidine carbonate (984 ppm guanidine), pH 11.2, 2. inoculation, 14 d) was 0, the “Stabilization of the paint against microbial infestation” value (shortened to “Stabilization of the paint”) (table 4, addition of 0.1% by weight to paint 1 having a pH of 9.1 or greater) was “distinct stabilization” and the “Stabilization of the paint” value (table 4, addition of 0.1% by weight to paint 2 having a pH of 8.9 or greater) was “distinct stabilization”. The “Stabilization of the paint” value (table 5, paint having a pH of pH 11.2, addition of 0.1% by weight) was “distinct stabilization”.
